Earlier results, collected in patent US20160279057A1, “Azelastine Formulations For Intranasal Nebulization And Irrigation” (CMPD LICENSING, LLC, priority 2015, published 2016).
Counter-ions that a name gives are not always drawn.

solubility in ethanol (ethanol): slightly soluble
solubility in glycerin (glycerin): slightly soluble
solubility in methanol (methanol): sparingly soluble
solubility in octanol (octanol): slightly soluble
solubility in propylene glycol (propylene glycol): sparingly soluble
solubility in water (water): sparingly soluble
Structure (SMILES): CN1CCCC(n2nc(Cc3ccc(Cl)cc3)c3ccccc3c2=O)CC1 (stereo not drawn) [Azelastine hydrochloride, azelastine hydrochloride]
